The record followed here is patent US9937178B2, “Methods of identifying and using MDM2 inhibitors” (DUKE UNIVERSITY, priority 2011, dated 2018).

Assay [1] relates to rBT474 xenografts. Briefly: rBT474 mammary fat pad xenograft. To be noted: 100 mg/kg each drug, twice daily by oral gavage.
Procedure: (§1) Forty-eight hours after siRNA transfection, cells were treated with 1 μM lapatinib for 48 hours, and cells were harvested and subjected to Annexin V staining. The percentage of Annexin V-positive cells was analyzed by FACS. Results are expressed as a mean percentage±SEM and analyzed by t-test (*P<0.05). […] The oral administration of lapatinib (100 mg/kg, twice daily by oral gavage) began when the average tumor volume surpassed 300 mm^3. Results are expressed as a mean percentage±SEM. […] After 36 hours, cells were harvested and immunoblotted. […] BT474 and rBT474 cells were injected into the mammary fad pad of each mouse. When tumors developed to a size of 200 mm^3, the mice were randomly assigned to receive vehicle, lapatinib (100 mg/kg), Nutlin-3 (100 mg/kg), or Lapatinib+Nutlin-3 and treated twice daily by oral gavage. Results are expressed as a mean percentage±SEM. […] Percentage of apoptotic cell death was measured by FACS analysis using Annexin V. Results are expressed as a mean percentage±SEM of Annexin V-positive cells (*P<0.05 by t-test).
(§2) Six week-old female nude mice were purchased from NCI Frederic. Xenograft tumors were produced by injection into the mammary fat pad with cells (10×10^6). Tumor volumes were calculated every 3-4 days based on caliper measurements of the short (a) and long (b) tumor diameters (volume=a2b/2). […]
The subject of assay [2] is rAU565-derived tumor. Briefly: rAU565 mammary fat pad xenograft. To be noted: 100 mg/kg each drug, twice daily by oral gavage.
Procedure: (§3) Six week-old female nude mice were purchased from NCI Frederic. Xenograft tumors were produced by injection into the mammary fat pad with cells (10×10^6). Tumor volumes were calculated every 3-4 days based on caliper measurements of the short (a) and long (b) tumor diameters (volume=a2b/2). […] Mice were dosed orally with vehicle alone, lapatinib (100 mg/kg), Nutlin-3 (100 mg/kg), or combination of both twice daily by gavage.
For assay [3], the system named is AU565-derived tumor. The experiment in a line: AU565 mammary fat pad xenograft. In kind it is in vivo, mouse. To be noted: 100 mg/kg each drug, twice daily by oral gavage.
Procedure: as §3
For assay [4], the system named is BT474 xenografts. The experiment in a line: BT474 mammary fat pad xenograft. The note with it: 100 mg/kg each drug, twice daily by oral gavage.
Procedure: as §1, §2
For assay [5], the system named is Mcl-1. Briefly: Immunoblot of Mcl-1 protein levels. Type of assay: cell-based. The note with it: rSKBR3 cells, 1 μM lapatinib, 10 μM Nutlin-3a, 36 hours, z-VAD. The protocol: FIG. 3 is a set of photographs showing that Mcl-1 is stabilized in lapatinib-resistant cells. […] FIG. 3B is a set of immunoblots showing the levels of HER2 and phospho-HER2 in untreated cells and cells treated with lapatinib. Cells were treated with or without lapatinib (1 μM) for 24 hours in the presence of the caspase inhibitor z-VAD (50 μM). The cells were harvested and cell lysates were immunoblotted using antibodies against phospho-HER2 (Y877) and total HER2. FIG. 3C is an immunoblot for phospho-AKT (T308) and total AKT. BT474 and rBT474 cells were treated with 1 μM lapatinib in the presence of 50 μM z-VAD. At the indicated time points, the cells were harvested and immunoblotted. FIG. 3D is an immunoblot for phospho-Erl1/2(T202/Y204) and total Erk1/2. BT474 and rBT474 cells were treated with 1 μM lapatinib in the presence of 50 μM z-VAD. At the indicated time points, the cells were harvested and immunoblotted. FIG. 3E is an immunoblot for Mcl-1, Bim, and Actin. BT474 and rBT474 cells (left) or SKBR3 and rSKBR3 cells (right) were treated with 1 μM lapatinib. The cells were harvested at the indicated time points and immunoblotted. FIG. 3F is an autoradiograph showing the ^35[S] radioactivity in lysates containing ^35[S]-Mcl-1 at the indicated time points. ^35[S]-labeled Mcl-1 protein was incubated in cell-free lysates prepared from BT474 and rBT474 cells (top) or SKBR3 and rSKBR3 cells (bottom). FIG. 3G is an autograph showing the ^35[S]-labeled Mcl-1 to monitor Mcl-1 stability over time. The ^35[S]-labeled Mcl-1 was incubated in lysates prepared from rBT474 cells treated with or without 1 μM lapatinib. FIG. 3H is an immunoblot for HA. SKBR3 or rSKBR3 cells were co-transfected with FLAG-Mcl-1 and HA-Ubiquitin (Ub). […] Cells were harvested after treatment with 10 μM MG 132 for 4 hours. FLAG-Mcl-1 was retrieved by immunoprecipitation using anti-flag agarose, and Mcl-1 ubiquitylation was analyzed by immunoblotting for HA (*non-specific band, **IgG heavy chain).
(In general: A western blot detects proteins with antibodies after separation by electrophoresis.)

Assay [6] has as its system CAS. The experiment in a line: Immunoblot of CAS protein levels. In kind it is cell-based. To be noted: rSKBR3 cells, 1 μM lapatinib, 10 μM Nutlin-3a, 36 hours, z-VAD. The protocol:
FIG. 11 is a set of photographs of immunoblots showing CAS degradation in lapatinib-resistant cells. FIG. 11A is an immunoblot for CAS and Actin. BT474 and rBT474 (left) or AU565 and rAU565 cells (right) cultured in the absence of lapatinib for one week were treated with 1 μM lapatinib and the cells were harvested at various time points. FIG. 11B is an immmunoblot for CAS and Actin. rBT474 cells were maintained in the presence of […] lapatinib and the cells were harvested at various time points following removal of lapatinib. FIG. 11C is an immunoblot for FLAG and actin. BT474 and rBT474 cells were transiently transfected with FLAG-tagged CAS and subsequently treated with 50 μg/ml cycloheximide (CHX) and 1 μM lapatinib and the cells were harvested at various time points. FIG. 11D is an immunoblot using HA to analyze ubiquitination of CAS. BT474 and rBT474 (left) or SKBR3 and rSKBR3 cells (right) were co-transfected with FLAG-CAS and HA-Ub. […] After treatment with 10 μM MG 132 for 8 hours, cells were harvested and FLAG-CAS was retrieved by immunoprecipitation. FIG. 11E is an immunoblot for FLAG-tagged proteins retrieved by immunoprecipitation and association with MDM2. H1299 cells were transfected with empty vector, FLAG-CAS^W127A, or FLAG-CAS wild type. FIG. 11F is an immunoblot for CAs after immunoprecipitation for FLAG. H1299 cells were transfected with empty vector, FLAG-CAS^W127A, or FLAG-CAS wild type. Cells were treated with 10 μM MG132 for 3 hours. […] SKBR3 cells were transfected with increasing amounts of MDM2. After 48 hours, cells were harvested and immunoblotted (*non-specific band). FIG. 11H is an immunoblot for CAS. […] FIG. 11I is an immunoblot for MDM2 or CAs after immunoprecipitation with FLAG. BT474 and rBT474 cells were transfected with FLAG-CAS. […] After treatment with 10 μM MG132 for 5 hours, FLAG-CAS was retrieved by immunoprecipitation and association of endogenous MDM2 was analyzed by immunoblotting.

In assay [7] the test system is PP5. Briefly: Immunoblot of PP5 protein levels. Type of assay: cell-based. The note with it: rSKBR3 cells, 1 μM lapatinib, 10 μM Nutlin-3a, 36 hours, z-VAD. The protocol: FIG. 7 is a set of photographs and graphs showing PP5 stability and post-cytochrome c protection in lapatinib-resistant cells. FIG. 7A is an immunoblot for caspase-9 (cleaved and non-cleaved) and cleaved caspase-3 (C9 and C3, respectively) showing rBT474 cells cultured in the absence or presence of 1 μM lapatinib for one week, as compared to BT474 cells which were maintained without lapatinib. Cytosolic lysates prepared from BT474 or rBT474 were incubated with 1 mM dATP and various amounts of cytochrome c (CC). FIG. 7B is a set of graphs showing Caspase 3 activity in the indicated cell lysates over time. Caspase-3 activity was assayed by measuring cleavage of DEVD-pNA following incubation of the cell lysates with 1 mM dATP and various concentrations of cytochrome c. FIG. 7C is an autoradiograph of ^32P and an immunoblot showing the percentage of the protein phosphorylated. In the presence of [γ-^32P]ATP, recombinant His-tagged HSP90β proteins (wild type and the indicated mutants) on nickel beads were incubated with the HSP90β-targeted kinase casein kinase 2. FIG. 7D is an autoradiograph and corresponding immunoblot showing BT474 or rBT474 cells after being cultured in the absence or presence of 1 μM lapatinib for 24 hours in the presence of z-VAD. Recombinant His-tagged HSP90β protein on nickel beads was incubated with the cell lysates in the presence of [γ-^32P]ATP. FIG. 7E is an immunoblot for phospho-Hsp90β (Ser226) and total HSP90β at various time points. […] FIG. 7F is a set of graphs showing FACS analysis for the phosphorylation status of Hsp90β (Ser255). BT474 or rBT474 cells cultured in the presence of 1 μM lapatinib for 24 hours were fixed with formaldehyde and incubated with phospho-Hsp90β (Ser255) antibody followed by an Alexa488-conjugated secondary antibody. FIG. 7G is an immunoblot for PP5 and actin at the indicated time points. BT474 and rBT474 (left) or AU565 and rAU565 cells (right) were treated with 1 μM lapatinib. FIG. 7H is an autoradiograph of immunoprecipitated FLAG-PP5 using an anti-FLAG agarose. […]

Assay [8] has as its system Huwe1. Briefly: Immunoblot of Huwe1 protein levels and stability. The note with it: rSKBR3 cells, 1 μM lapatinib, 10 μM Nutlin-3a, 36 hours, z-VAD. In kind it is cell-based. On the procedure: FIG. 13 is a set of immunoblots showing MDM2-mediated ubiquitylation and degradation of Huwe1 in lapatinib-resistant cells. […] Cells treated with 1 μM lapatinib were harvested at various time points and immunoblotted. […] FIG. 13B is an immunoblot for HA and actin. BT474 and rBT474 cells were transiently transfected with HA-tagged Huwe1 and subsequently treated with 50 μg/ml cycloheximide (CHX) and 1 μM lapatinib. FIG. 13C is an immunoblot for Huwe1 and MDM2. Immunoprecipitation was carried out using H1299 cell lysates and anti-Huwe1 antibody (or control IgG). FIG. 13D is an immunoblot for HA or MDM2 after immunoprecipitation with HA. BT474 cells were transfected with HA-tagged Huwe1 encoding the full-length protein, residues 1-2474, or residues 2473-4374. […] H1299 cells were transfected with empty vector, HA-Huwe1^W1202A, or HA-Huwe1 wild type. FIG. 13F is an immunoblot for Huwe1 and Actin. BT474 cells were transfected with increasing amounts of MDM2 and harvested after 48 hours. FIG. 13G is an immunoblot for Huwe1, MDM2, and actin. […] FIG. 13H is an immunoblot for Huwe1. Ubiquitylation of Huwe1 was reconstituted in vitro by incubating recombinant Huwe1 protein (Huwe1^1-2474) with E1, UbcH5 (E2), ubiquitin (Ub), and recombinant MDM2 protein in reaction buffer at 37° C. for 3 hours. […] Twenty-four hours later, the cells were replated and further transfected with HA-tagged Huwe1 (wild type). Forty-eight hours after siRNA transfection, the cells were treated with 1 μM lapatinib. After 24 hours of lapatinib treatment, 50 μg/ml cycloheximide (CHX) was added to the culture medium and cells were harvested at various time points for immunoblotting.

In assay [9] the test system is Mcl-1. The experiment in a line: 35[S]-Mcl-1 degradation in cell-free lysates. In kind it is cell-based. The note with it: resistant cell lysates, 5 μM ubiquitin aldehyde. The protocol:
FIG. 3 is a set of photographs showing that Mcl-1 is stabilized in lapatinib-resistant cells. […] FIG. 3B is a set of immunoblots showing the levels of HER2 and phospho-HER2 in untreated cells and cells treated with lapatinib. Cells were treated with or without lapatinib (1 μM) for 24 hours in the presence of the caspase inhibitor z-VAD (50 μM). The cells were harvested and cell lysates were immunoblotted using antibodies against phospho-HER2 (Y877) and total HER2. FIG. 3C is an immunoblot for phospho-AKT (T308) and total AKT. BT474 and rBT474 cells were treated with 1 μM lapatinib in the presence of 50 μM z-VAD. At the indicated time points, the cells were harvested and immunoblotted. FIG. 3D is an immunoblot for phospho-Erl1/2(T202/Y204) and total Erk1/2. BT474 and rBT474 cells were treated with 1 μM lapatinib in the presence of 50 μM z-VAD. At the indicated time points, the cells were harvested and immunoblotted. […] FIG. 3F is an autoradiograph showing the ^35[S] radioactivity in lysates containing ^35[S]-Mcl-1 at the indicated time points. ^35[S]-labeled Mcl-1 protein was incubated in cell-free lysates prepared from BT474 and rBT474 cells (top) or SKBR3 and rSKBR3 cells (bottom). […] FLAG-Mcl-1 was retrieved by immunoprecipitation using anti-flag agarose, and Mcl-1 ubiquitylation was analyzed by immunoblotting for HA (*non-specific band, **IgG heavy chain). […]

For `COc1ccc(C2=N[C@@H](c3ccc(Cl)cc3)[C@@H](c3ccc(Cl)cc3)N2C(=O)N2CCNC(=O)C2)c(OC(C)C)c1` [Nutlin-3], the rBT474-derived tumor growth entry in assay [1] is listed as “Neither lapatinib nor Nutlin-3 inhibited”. In assay [2], the rAU565-derived tumor growth entry is “moderate tumor inhibitory effects”. The AU565-derived tumor growth result in assay [3] is given as “moderate tumor inhibitory effects”. Besides, the “growth of BT474-derived tumors” value in assay [4] is on record as “only modestly inhibited”.
As to `COc1ccc(C2=N[C@@H](c3ccc(Cl)cc3)[C@@H](c3ccc(Cl)cc3)N2C(=O)N2CCNC(=O)C2)c(OC(C)C)c1` [Nutlin-3a], the “lapatinib-induced upregulation of Mcl-1” value in assay [5] is on record as “suppressed”. The CAS degradation result in assay [6] is recorded as “significantly inhibited”. Further, the “lapatinib-induced upregulation of PP5” value in assay [7] was “suppressed”. In assay [8], the “lapatinib-induced degradation of Huwe1” value is “prevented”.
For the compound ubiquitin aldehyde, the “degradation of 35[S]-Mcl-1” value in [9] is “did not prevent the failure to degrade”.
